From patent US20190209618A1, “METHODS AND COMPOSITIONS FOR EXPANSION OF HEMATOPOIETIC STEM AND/OR PROGENITOR CELLS EMPLOYING A CYTOCHROME P450 1B1 (CYP1B1) INHIBITOR OR A MUSASHI-2 (MSI2) ACTIVATOR” (McMaster University, priority 2016, published 2019)
Read-outs that look alike come from different tables or passages of the source.

Columns and labels:
[1] = system: Lin− CD34+CB HSPCs; assay: High throughput screen of CYP family inhibitors for in vitro HSPC expansion
Method: FIG. 16: Primary screen for inhibitors of Cytochrome […] oxidases and promotion of in vitro HSPC expansion by primitive marker expression. 1000 flow sorted Lin− CD34+CB HSPCs were plated per well of a 96-well plate and test compounds were added at three doses (0.1 uM, 1.0 uM, 10 uM) in triplicate. Cell cultures were refreshed with medium every 3 days and at day 10 cells were counted and assessed for CD34 marker expression. […] Columns marked by “x” have a >2-fold increase compared to DMSO. Columns marked by “o” show at least a 1.5-fold increase compared to DMSO control. […] Data shown as mean+/−SEM from n=3 cultures.
FIG. 17: Primary screen for inhibitors of Cytochrome […] oxidases and promotion of in vitro HSPC expansion by total number CD34 marked cells. 1000 flow sorted Lin− CD34+CB HSPCs were plated per well of a 96-well plate and test compounds were added at three doses (0.1 uM, 1.0 uM, 10 uM) in triplicate. Cell cultures were refreshed with medium every 3 days and at day 10 cells were counted and assessed for CD34 marker expression. […] Columns marked by “x” have a >2-fold increase compared to DMSO. Columns marked by “o” show at least a 1.5-fold increase compared to DMSO control. […] Data shown as mean+/−SEM from n=3 cultures.
A screening approach was undertaken that tested the function of 3 alkaloid, 9 coumarin, and 17 flavonoid based compounds ([…], Table 1). The screening approach used 96-well plates seeded with 1000 FACS-purified CD34+ cells and treatment with 3 concentrations of each compound performed in triplicate culture wells (9 wells total per compound). Cells were cultured for 10 days and resultant growth was measured for cell number and surface marker expression by automated flow cytometer (MACS Quant).

[2] = system: Lin− CD34+ cells; assay: HSPC expansion with TMS; type: cell-based, human; details: TMS 10 μM vs 0.1% DMSO, during culture
Method: Lin^− CD34^+ cells were cultured for 72 hours (lentiviral treated but non-transduced flow-sorted GFP^− cells) in StemSpan medium containing growth factors IL-6 (20 ng/ml), SCF (100 ng/ml), FLT3-L (100 ng/ml) and TPO (20 ng/ml) before the addition of the CYP1B1 inhibitor TMS (Abcam) at a concentration of 10 μM or mock treatment with 0.1% DMSO. Equal numbers of cells (12,000 per condition) were then allowed to proliferate for 7 days at which point they were counted and immunophenotyped for CD34 and CD133 expression.

[3] = system: Lin− CD34+ cells; assay: MSI2 OE and control suspension cultures with AHR antagonist SR1; type: cell-based, human; details: SR1 750 nM vs DMSO, 10 days
Method: GFP^+ cells were isolated (20,000 cells per culture) and allowed to proliferate with or without SR1 for an additional 7 days at which point they were counted and immunophenotyped for CD34 and CD133 expression. […] GFP^+ cells were isolated (20,000 cells per culture) and allowed to proliferate with FICZ (200 nM; Santa Cruz Biotechnology) or DMSO (0.1%) for an additional 3 days at which point they were immunophenotyped for CD34 and CD133 expression.

[4] = system: AHR; assay: AHR ChIP-seq comparison to downregulated gene sets; set-up: species or system human; details: ChIP-seq-identified AHR targets; SR1 500 nM, UM171 35 nM gene sets
Description: Percentage of down regulated genes with AHR bound regions was then graphed for each gene set. P-values were generated with Fisher's exact test between gene lists.

[5] = system: CYP enzymes; details: cited from earlier work
[6] = summary statement referring to the Examples

SMILES: COc1cc(/C=C/c2ccc(OC)cc2OC)cc(OC)c1 [TMS, (E)-2,3′,4,5′-Tetramethoxystilbene]
- % CD34+ at day 10 relative to DMSO ([1]; 1000 CD34+ cells per well, 0.1, 1.0, 10 uM, 10 days): > 2 fold
- self-renewal and expansion of hematopoietic stem and progenitor cell cultures [1, 6]: promote the self-renewal and expansion
- increase in frequency of CD34+ cells [2]: 1.5 fold
- increase in total numbers of CD34+ cells [2]: 2 fold

SMILES: COc1ccc(-c2cc(=O)c3c(O)cc(O)cc3o2)cc1 [Acacetin, 5,7-dihydroxy-2-(4-methoxyphenyl)-4H-1-benzopyran-4-one]
- self-renewal and expansion of hematopoietic stem and progenitor cell cultures [1, 6]: promote the self-renewal and expansion

SMILES: CC(C)n1cnc2c(NCCc3ccc(O)cc3)nc(-c3csc4ccccc34)nc21 [SR1, StemRegenin 1]
- increase in percentage of CD34+ cells ([3]; MSI2 OE cultures): 4 fold
- increase in percentage of CD34+ cells ([3]; control transduced cultures): 8 fold
- enrichment of direct transcriptional targets of AHR in downregulated gene set compared to UM171 [4]: 5.6 fold

SMILES: O=c1c(-c2ccc(O)cc2)coc2cc(O)ccc12 [Daidzein, 7-Hydroxy-3-(4-hydroxyphenyl) chromen-4-one]
- IC50 [5]: 7.9 µM

SMILES: O=C1CC(c2ccc(O)cc2)Oc2cc(O)cc(O)c21 (centres unmarked) [Naringenin, 5,7-Dihydroxy-2-(4-hydroxyphenyl)chroman-4-one]
- self-renewal and expansion of hematopoietic stem and progenitor cell cultures [1, 6]: promote the self-renewal and expansion

SMILES: O=c1cc(-c2ccccc2)oc2cc(O)cc(O)c12 [Chrysin, 5,7-Dihydroxy-2-phenyl-4H-chromen-4-one]
- self-renewal and expansion of hematopoietic stem and progenitor cell cultures [1]: promote the self-renewal and expansion
